The source of these data is the NIST ThermoML archive (doi:10.1016/j.fluid.2005.11.026).

For the series the following is noted: 313.15 K; Liquid; Closed cell (Static) method.

SMILES strings stand for the structures. “And” between values parts separate entries of the source, which are not always exact repeats. Identical values can stand only once. ± gives the expanded uncertainty stated by the source.

The term vapor or sublimation pressure denotes the pressure of vapour in equilibrium with the condensed phase. As for `C1CCCCC1` [cyclohexane], the “vapor or sublimation pressure” value worked out at 24.62 ± 0.096 kPa.

Take `Cc1ccccc1` [toluene]: the “vapor or sublimation pressure” value was 7.881 ± 0.041 kPa and 7.888 ± 0.041 kPa and 7.889 ± 0.041 kPa.
